According to ChEMBL document CHEMBL3822442, “Synthesis and Pharmacological Characterization of Novel Glucagon-like Peptide-2 (GLP-2) Analogues with Low Systemic Clearance” (J Med Chem, 2016):
Active and inactive are the calls of the source. The rule behind the calls is not given here. Non-standard residues stand in square brackets, D forms with d. Residues, ends and D or L forms follow the SMILES beside them. ξ: configuration not given here. ξNle = CCCCC(N)C(=O)O

Key:
Rattus norvegicus = test: Intestinotrophic activity in Sprague-Dawley rat assessed as increase in intestinal growth at 1000 nmol/kg, sc once daily through bolus administration for 5 days relative to control; type: functional
[1] = Protein binding in rat plasma at 200 to 1000 ng/ml incubated for 15 mins by LC/MS/MS based ultracentrifugation method; type: ADME, cell-free; settings: read-out: PPB (converted)
HEK293 = test: Selectivity ratio of EC50 for human GLP1R expressed in HEK293 cells to EC50 for human GLP2R expressed in HEK293; type: cell-based
[2] = Systemic clearance in Sprague-Dawley rat at 0.2 mg/kg, iv through cassette dosing measured up to 300 mins by LC/MS/MS analysis; type: ADME, organism-based; settings: in vivo
[3] = biological target: T1, Glucagon-like peptide 2 receptor (Homo sapiens, UniProt O95838); test: Agonist activity at human GLP2R expressed in HEK293 cells after 5 hrs by luciferase reporter gene assay; type: cell-based
T1 sequence (O95838 whole entry): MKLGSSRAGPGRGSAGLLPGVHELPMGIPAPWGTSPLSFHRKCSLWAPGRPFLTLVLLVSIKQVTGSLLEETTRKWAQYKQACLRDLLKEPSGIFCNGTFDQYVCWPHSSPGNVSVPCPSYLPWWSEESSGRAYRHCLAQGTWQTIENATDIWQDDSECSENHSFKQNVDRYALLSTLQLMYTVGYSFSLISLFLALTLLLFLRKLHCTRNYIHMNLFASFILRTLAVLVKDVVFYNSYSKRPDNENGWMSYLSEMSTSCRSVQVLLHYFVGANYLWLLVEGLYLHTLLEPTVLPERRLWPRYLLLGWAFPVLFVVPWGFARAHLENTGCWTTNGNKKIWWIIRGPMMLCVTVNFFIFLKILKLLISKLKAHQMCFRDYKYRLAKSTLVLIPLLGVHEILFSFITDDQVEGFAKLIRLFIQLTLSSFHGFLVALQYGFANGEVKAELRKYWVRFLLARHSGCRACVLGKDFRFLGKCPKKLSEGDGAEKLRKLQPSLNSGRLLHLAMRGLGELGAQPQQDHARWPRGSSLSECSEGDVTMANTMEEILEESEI

[4] = biological target: Glucagon-like peptide 1 receptor (Homo sapiens, UniProt P43220); test: Agonist activity at human GLP1R expressed in HEK293 cells after 5 hrs by luciferase reporter gene assay; type: cell-based
[5] = biological target: Glucagon receptor (Homo sapiens) (UniProt P47871); test: Agonist activity at human GCGR expressed in HEK293 cells up to 1000 nM after 5 hrs by luciferase reporter gene assay; type: cell-based
[6] = biological target: T2, Glucagon-like peptide 2 receptor (Rattus norvegicus, UniProt Q9Z0W0); test: Agonist activity at rat GLP2R expressed in HEK293 cells after 5 hrs by luciferase reporter gene assay; type: cell-based
T2 sequence (Q9Z0W0 whole entry): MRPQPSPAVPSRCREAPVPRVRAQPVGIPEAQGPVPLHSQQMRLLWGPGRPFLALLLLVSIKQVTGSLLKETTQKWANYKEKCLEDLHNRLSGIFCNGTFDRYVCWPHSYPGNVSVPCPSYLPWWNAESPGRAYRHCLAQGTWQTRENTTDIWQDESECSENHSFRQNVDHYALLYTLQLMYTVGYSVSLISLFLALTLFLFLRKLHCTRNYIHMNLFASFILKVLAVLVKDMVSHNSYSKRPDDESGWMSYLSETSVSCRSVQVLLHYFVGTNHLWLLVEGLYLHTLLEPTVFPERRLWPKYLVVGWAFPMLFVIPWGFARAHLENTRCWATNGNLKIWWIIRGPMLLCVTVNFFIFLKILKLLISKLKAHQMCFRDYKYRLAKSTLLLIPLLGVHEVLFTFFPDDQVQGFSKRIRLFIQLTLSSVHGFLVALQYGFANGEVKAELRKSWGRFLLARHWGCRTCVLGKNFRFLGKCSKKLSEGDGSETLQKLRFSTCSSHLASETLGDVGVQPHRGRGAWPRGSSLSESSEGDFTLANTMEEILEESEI

Glucagon-like peptide 1 receptor, sequence (P43220 whole entry): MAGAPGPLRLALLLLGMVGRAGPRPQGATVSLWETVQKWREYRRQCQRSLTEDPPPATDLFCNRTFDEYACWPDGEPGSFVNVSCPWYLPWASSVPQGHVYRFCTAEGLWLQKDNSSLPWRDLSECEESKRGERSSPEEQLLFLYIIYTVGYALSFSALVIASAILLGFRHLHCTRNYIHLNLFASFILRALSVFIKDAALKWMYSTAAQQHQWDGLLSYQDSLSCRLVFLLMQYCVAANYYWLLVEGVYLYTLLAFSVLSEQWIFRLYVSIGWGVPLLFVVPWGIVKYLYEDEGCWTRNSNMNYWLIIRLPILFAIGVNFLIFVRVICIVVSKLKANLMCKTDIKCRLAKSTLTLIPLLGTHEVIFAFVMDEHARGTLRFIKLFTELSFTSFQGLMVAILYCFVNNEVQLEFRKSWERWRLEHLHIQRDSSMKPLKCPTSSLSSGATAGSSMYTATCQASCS
Glucagon receptor (Homo sapiens), sequence (P47871 whole entry): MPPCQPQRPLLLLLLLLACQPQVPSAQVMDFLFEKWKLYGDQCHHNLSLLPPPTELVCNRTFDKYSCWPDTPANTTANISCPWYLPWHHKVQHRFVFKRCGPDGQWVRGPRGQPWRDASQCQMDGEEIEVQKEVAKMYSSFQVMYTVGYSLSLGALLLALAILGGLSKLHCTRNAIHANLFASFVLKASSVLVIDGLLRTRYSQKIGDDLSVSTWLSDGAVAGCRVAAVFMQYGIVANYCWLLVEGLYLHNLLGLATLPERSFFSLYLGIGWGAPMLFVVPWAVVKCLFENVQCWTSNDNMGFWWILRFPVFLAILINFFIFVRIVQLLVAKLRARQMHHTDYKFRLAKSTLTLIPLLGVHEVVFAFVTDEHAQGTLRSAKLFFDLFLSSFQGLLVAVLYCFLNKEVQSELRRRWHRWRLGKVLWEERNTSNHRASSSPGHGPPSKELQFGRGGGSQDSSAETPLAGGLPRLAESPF

CCCC[C@H](NC(=O)[C@H](CCC(=O)O)NC(=O)[C@H](CC(=O)O)NC(=O)[C@H](CO)NC(=O)[C@H](Cc1ccccc1)NC(=O)[C@H](CO)NC(=O)CNC(=O)[C@H](CC(=O)O)NC(=O)CNC(=O)[C@@H](N)Cc1cnc[nH]1)C(=O)N[C@H](Cc1ccccc1)C(=O)N[C@H](C(=O)N[C@H](C(=O)N[C@@H](CC(C)C)C(=O)N[C@@H](CC(=O)O)C(=O)N[C@@H](CC(C)C)C(=O)N[C@@H](CC(C)C)C(=O)N[C@@H](C)C(=O)N[C@@H](C)C(=O)N[C@@H](CCCNC(=N)N)C(=O)N[C@@H](CC(=O)O)C(=O)N[C@@H](Cc1ccccc1)C(=O)N[C@H](C(=O)N[C@@H](CC(N)=O)C(=O)N[C@@H](Cc1c[nH]c2ccccc12)C(=O)N[C@@H](CC(C)C)C(=O)N[C@H](C(=O)N[C@@H](CCC(N)=O)C(=O)N[C@H](C(=O)N[C@@H](CCCCN)C(=O)N[C@H](C(=O)N[C@H](C(=O)N[C@@H](CC(=O)O)C(N)=O)[C@@H](C)O)[C@@H](C)CC)[C@@H](C)O)[C@@H](C)CC)[C@@H](C)CC)[C@@H](C)CC)[C@@H](C)O [listing 1 of 2 here]
Activity (Rattus norvegicus): 61.2%

CCCCC(NC(=O)[C@H](CCC(=O)O)NC(=O)[C@H](CC(=O)O)NC(=O)[C@H](CO)NC(=O)[C@H](Cc1ccccc1)NC(=O)[C@H](CO)NC(=O)CNC(=O)[C@H](CC(=O)O)NC(=O)CNC(=O)[C@@H](N)Cc1cnc[nH]1)C(=O)N[C@H](Cc1ccccc1)C(=O)N[C@H](C(=O)N[C@H](C(=O)N[C@@H](CC(C)C)C(=O)N[C@@H](CC(=O)O)C(=O)N[C@@H](CC(C)C)C(=O)N[C@@H](CC(C)C)C(=O)N[C@@H](C)C(=O)N[C@@H](C)C(=O)N[C@@H](CCCNC(=N)N)C(=O)N[C@@H](CC(=O)O)C(=O)N[C@@H](Cc1ccccc1)C(=O)N[C@H](C(=O)N[C@@H](CC(N)=O)C(=O)N[C@@H](Cc1c[nH]c2ccccc12)C(=O)N[C@@H](CC(C)C)C(=O)N[C@H](C(=O)N[C@@H](CCC(N)=O)C(=O)N[C@H](C(=O)N[C@@H](CCCCN)C(=O)N[C@H](C(=O)N[C@H](C(=O)N[C@@H](CC(=O)O)C(=O)NCC(C)C)[C@@H](C)O)[C@@H](C)CC)[C@@H](C)O)[C@@H](C)CC)[C@@H](C)CC)[C@@H](C)CC)[C@@H](C)O (stereo partly specified)
fraction unbound at 0.25 h [1]: 0.016
Ratio EC50 (HEK293): > 16000
clearance [2]: 0.17 mL/min/kg
EC50 [3]: 0.06 nM
EC50 [4]: > 1000 nM

CCCCC(NC(=O)[C@H](CCC(=O)O)NC(=O)[C@H](CC(=O)O)NC(=O)[C@H](CO)NC(=O)[C@H](Cc1ccccc1)NC(=O)[C@H](CO)NC(=O)CNC(=O)[C@H](CC(=O)O)NC(=O)CNC(=O)[C@@H](N)Cc1cnc[nH]1)C(=O)N[C@@H](CC(N)=O)C(=O)N[C@H](C(=O)N[C@H](C(=O)N[C@@H](CC(C)C)C(=O)N[C@@H](CC(=O)O)C(=O)N[C@@H](CC(C)C)C(=O)N[C@@H](CC(C)C)C(=O)N[C@@H](C)C(=O)N[C@@H](C)C(=O)N[C@@H](CCCNC(=N)N)C(=O)N[C@@H](CC(=O)O)C(=O)N[C@@H](Cc1ccccc1)C(=O)N[C@H](C(=O)N[C@@H](CC(N)=O)C(=O)N[C@@H](Cc1c[nH]c2ccccc12)C(=O)N[C@@H](CC(C)C)C(=O)N[C@H](C(=O)N[C@@H](CCC(N)=O)C(=O)N[C@H](C(=O)N[C@@H](CCCCN)C(N)=O)[C@@H](C)O)[C@@H](C)CC)[C@@H](C)CC)[C@@H](C)CC)[C@@H](C)O (stereo partly specified) (H-HGDGSFSDE[ξNle]NTILDLLAARDFINWLIQTK-NH2)
fraction unbound at 0.25 h [1]: 0.013
Ratio EC50 (HEK293): > 10000
Activity [5]: inactive
clearance [2]: 0.84 mL/min/kg
EC50 [3]: 0.1 nM
EC50 [4]: > 1000 nM

CCCC[C@H](NC(=O)[C@H](CCC(=O)O)NC(=O)[C@H](CC(=O)O)NC(=O)[C@H](CO)NC(=O)[C@H](Cc1ccccc1)NC(=O)[C@H](CO)NC(=O)CNC(=O)[C@H](CC(=O)O)NC(=O)CNC(=O)[C@@H](N)Cc1cnc[nH]1)C(=O)N[C@H](Cc1ccccc1)C(=O)N[C@H](C(=O)N[C@H](C(=O)N[C@@H](CC(C)C)C(=O)N[C@@H](CC(=O)O)C(=O)N[C@@H](CC(C)C)C(=O)N[C@@H](CC(C)C)C(=O)N[C@@H](C)C(=O)N[C@@H](C)C(=O)N[C@@H](CCCNC(=N)N)C(=O)N[C@@H](CC(=O)O)C(=O)N[C@@H](Cc1ccccc1)C(=O)N[C@H](C(=O)N[C@@H](CC(N)=O)C(=O)N[C@@H](Cc1c[nH]c2ccccc12)C(=O)N[C@@H](CC(C)C)C(=O)N[C@H](C(=O)N[C@@H](CCC(N)=O)C(=O)N[C@H](C(=O)N[C@@H](CCCCN)C(=O)N[C@H](C(=O)N[C@H](C(=O)N[C@@H](CC(=O)O)C(=O)O)[C@@H](C)O)[C@@H](C)CC)[C@@H](C)O)[C@@H](C)CC)[C@@H](C)CC)[C@@H](C)CC)[C@@H](C)O
fraction unbound at 0.25 h [1]: 0.005
clearance [2]: 0.28 mL/min/kg
EC50 [3]: 0.03 nM
EC50 [4]: > 1000 nM

CCCC[C@H](NC(=O)[C@H](CCC(=O)O)NC(=O)[C@H](CC(=O)O)NC(=O)[C@H](CO)NC(=O)[C@H](Cc1ccccc1)NC(=O)[C@H](CO)NC(=O)CNC(=O)[C@H](CC(=O)O)NC(=O)CNC(=O)[C@@H](N)Cc1cnc[nH]1)C(=O)N[C@H](Cc1ccccc1)C(=O)N[C@H](C(=O)N[C@H](C(=O)N[C@@H](CC(C)C)C(=O)N[C@@H](CC(=O)O)C(=O)N[C@@H](CC(N)=O)C(=O)N[C@@H](CC(C)C)C(=O)N[C@@H](C)C(=O)N[C@@H](C)C(=O)N[C@@H](CCCNC(=N)N)C(=O)N[C@@H](CC(=O)O)C(=O)N[C@@H](Cc1ccccc1)C(=O)N[C@H](C(=O)N[C@@H](CC(N)=O)C(=O)N[C@@H](Cc1c[nH]c2ccccc12)C(=O)N[C@@H](CC(C)C)C(=O)N[C@H](C(=O)N[C@@H](CCC(N)=O)C(=O)N[C@H](C(=O)N[C@@H](CCCCN)C(N)=O)[C@@H](C)O)[C@@H](C)CC)[C@@H](C)CC)[C@@H](C)CC)[C@@H](C)O
fraction unbound at 0.25 h [1]: 0.039
EC50 [3]: 0.09 nM
EC50 [4]: 120 nM

CCCC[C@H](NC(=O)[C@H](CCC(=O)O)NC(=O)[C@H](CC(=O)O)NC(=O)[C@H](CO)NC(=O)[C@H](Cc1ccccc1)NC(=O)[C@H](CO)NC(=O)CNC(=O)[C@H](CC(=O)O)NC(=O)CNC(=O)[C@@H](N)Cc1cnc[nH]1)C(=O)N[C@H](Cc1ccccc1)C(=O)N[C@H](C(=O)N[C@H](C(=O)N[C@@H](CC(C)C)C(=O)N[C@@H](CC(=O)O)C(=O)N[C@@H](CC(C)C)C(=O)N[C@@H](CC(C)C)C(=O)N[C@@H](C)C(=O)N[C@@H](C)C(=O)N[C@@H](CCCNC(=N)N)C(=O)N[C@@H](CC(=O)O)C(=O)N[C@@H](Cc1ccccc1)C(=O)N[C@H](C(=O)N[C@@H](CC(N)=O)C(=O)N[C@@H](Cc1c[nH]c2ccccc12)C(=O)N[C@@H](CC(C)C)C(=O)N[C@H](C(=O)N[C@@H](CCC(N)=O)C(=O)N[C@H](C(=O)N[C@@H](CCCCN)C(=O)N[C@H](C(=O)N[C@H](C(=O)N[C@@H](CC(=O)O)C(N)=O)[C@@H](C)O)[C@@H](C)CC)[C@@H](C)O)[C@@H](C)CC)[C@@H](C)CC)[C@@H](C)CC)[C@@H](C)O [listing 2 of 2 here]
fraction unbound at 0.25 h [1]: 0.008
EC50 [3]: 0.03 nM
EC50 [4]: > 1000 nM
EC50 [6]: 0.04 nM

CC[C@H](C)[C@H](NC(=O)[C@H](Cc1ccccc1)NC(=O)[C@H](CC(=O)O)NC(=O)[C@H](CCCN=C(N)N)NC(=O)[C@H](C)NC(=O)[C@H](C)NC(=O)[C@H](CC(C)C)NC(=O)[C@H](CC(N)=O)NC(=O)[C@H](CC(=O)O)NC(=O)[C@H](CC(C)C)NC(=O)[C@@H](NC(=O)[C@@H](NC(=O)[C@H](CC(N)=O)NC(=O)[C@H](CCSC)NC(=O)[C@H](CCC(=O)O)NC(=O)[C@H](CC(=O)O)NC(=O)[C@H](CO)NC(=O)[C@H](Cc1ccccc1)NC(=O)[C@H](CO)NC(=O)CNC(=O)[C@H](CC(=O)O)NC(=O)[C@H](C)NC(=O)[C@@H](N)Cc1cnc[nH]1)[C@@H](C)O)[C@@H](C)CC)C(=O)N[C@@H](CC(N)=O)C(=O)N[C@@H](Cc1c[nH]c2ccccc12)C(=O)N[C@@H](CC(C)C)C(=O)N[C@H](C(=O)N[C@@H](CCC(N)=O)C(=O)N[C@H](C(=O)N[C@@H](CCCCN)C(=O)N[C@H](C(=O)N[C@H](C(=O)N[C@@H](CC(=O)O)C(=O)O)[C@@H](C)O)[C@@H](C)CC)[C@@H](C)O)[C@@H](C)CC
fraction unbound at 0.25 h [1]: 0.338
clearance [2]: 25 mL/min/kg
EC50 [4]: 520 nM
